Source: ChEMBL document CHEMBL3091425, “Benzoxazine Derivatives As CRAC Modulators” (ACS Med Chem Lett, 2013)

What was measured:
[1] = Modulation of calcium release-activated calcium channel in mitomycin C-stimulated human PBMC assessed as [3H]thymidine incorporation after 4 days by topcount scintillation counting analysis
[2] = Modulation of calcium release-activated calcium channel in human whole blood T cells assessed as inhibition of thapsigargin-stimulated IL2 production incubated 30 mins prior to thapsigargin-challenge measured after overnight incubation by AlphaLISA IL-2 assay; type: cell-based; conditions: T-cell
[3] = Modulation of calcium release-activated calcium channel in human jurkat cells assessed as inhibition of PHA/PMA/ionomycin-stimulated IL2 production incubated 10 mins prior to PHA/PMA/ionomycin-challenge measured after 18 to 20 hrs; type: cell-based

IC50 [1]	IC50 [2]	IC50 [3]	SMILES
430 nM	360 nM	30 nM	CCc1sc(-c2cc(C)on2)nc1-c1ccc2c(c1)OCC(c1c(F)cccc1F)N2 (stereo not drawn)
190 nM	430 nM	30 nM	Cc1sc(-c2cccnc2)nc1-c1ccc2c(c1)OCC(c1c(F)cccc1F)N2 (stereo not drawn)
100 nM	520 nM	30 nM	CCc1sc(-c2cccnc2)nc1-c1ccc2c(c1)OCC(c1c(F)cccc1F)N2 (stereo not drawn)
180 nM	870 nM	20 nM	CCc1sc(-c2cnccn2)nc1-c1ccc2c(c1)OCC(c1c(F)cccc1F)N2 (stereo not drawn)
330 nM	320 nM	70 nM	CCn1nc(-c2cccnc2)cc1-c1ccc2c(c1)OCC(c1c(F)cccc1F)N2 (stereo not drawn)
440 nM	320 nM	20 nM	CCc1sc(-c2ccncc2)nc1-c1ccc2c(c1)OCC(c1c(F)cccc1F)N2 (stereo not drawn)
